Laboratory results published in patent US7977069B2, “DNA encoding a CCK-8S G-protein coupled receptor, and vectors, transformants, cell kits, and methods employing such DNA” (Daiichi Sankyo Company, Limited, priority 2003, dated 2011).
Values belong to the molecule of their own block, whether it stands above or below them.

Experiments:
[1] = biological target: T1, protein encoded by ph01207 (Homo sapiens, UniProt O60241, DEL308-362); experiment: Change in intracellular Ca2+ concentration in HA-ph01207#10-6 cell line (FLIPR Calcium 3, FLEXstation); type: cell-based; details: for rise in the intracellular Ca2+ concentration: peptide final concentration 1 nM
T1 construct: expressed in transfected cells; host or cells: CHO-K1 (HA-ph01207#10-6, FERM BP-10101)
T1 sequence (O60241 with tags, fused parts or gaps DEL308-362): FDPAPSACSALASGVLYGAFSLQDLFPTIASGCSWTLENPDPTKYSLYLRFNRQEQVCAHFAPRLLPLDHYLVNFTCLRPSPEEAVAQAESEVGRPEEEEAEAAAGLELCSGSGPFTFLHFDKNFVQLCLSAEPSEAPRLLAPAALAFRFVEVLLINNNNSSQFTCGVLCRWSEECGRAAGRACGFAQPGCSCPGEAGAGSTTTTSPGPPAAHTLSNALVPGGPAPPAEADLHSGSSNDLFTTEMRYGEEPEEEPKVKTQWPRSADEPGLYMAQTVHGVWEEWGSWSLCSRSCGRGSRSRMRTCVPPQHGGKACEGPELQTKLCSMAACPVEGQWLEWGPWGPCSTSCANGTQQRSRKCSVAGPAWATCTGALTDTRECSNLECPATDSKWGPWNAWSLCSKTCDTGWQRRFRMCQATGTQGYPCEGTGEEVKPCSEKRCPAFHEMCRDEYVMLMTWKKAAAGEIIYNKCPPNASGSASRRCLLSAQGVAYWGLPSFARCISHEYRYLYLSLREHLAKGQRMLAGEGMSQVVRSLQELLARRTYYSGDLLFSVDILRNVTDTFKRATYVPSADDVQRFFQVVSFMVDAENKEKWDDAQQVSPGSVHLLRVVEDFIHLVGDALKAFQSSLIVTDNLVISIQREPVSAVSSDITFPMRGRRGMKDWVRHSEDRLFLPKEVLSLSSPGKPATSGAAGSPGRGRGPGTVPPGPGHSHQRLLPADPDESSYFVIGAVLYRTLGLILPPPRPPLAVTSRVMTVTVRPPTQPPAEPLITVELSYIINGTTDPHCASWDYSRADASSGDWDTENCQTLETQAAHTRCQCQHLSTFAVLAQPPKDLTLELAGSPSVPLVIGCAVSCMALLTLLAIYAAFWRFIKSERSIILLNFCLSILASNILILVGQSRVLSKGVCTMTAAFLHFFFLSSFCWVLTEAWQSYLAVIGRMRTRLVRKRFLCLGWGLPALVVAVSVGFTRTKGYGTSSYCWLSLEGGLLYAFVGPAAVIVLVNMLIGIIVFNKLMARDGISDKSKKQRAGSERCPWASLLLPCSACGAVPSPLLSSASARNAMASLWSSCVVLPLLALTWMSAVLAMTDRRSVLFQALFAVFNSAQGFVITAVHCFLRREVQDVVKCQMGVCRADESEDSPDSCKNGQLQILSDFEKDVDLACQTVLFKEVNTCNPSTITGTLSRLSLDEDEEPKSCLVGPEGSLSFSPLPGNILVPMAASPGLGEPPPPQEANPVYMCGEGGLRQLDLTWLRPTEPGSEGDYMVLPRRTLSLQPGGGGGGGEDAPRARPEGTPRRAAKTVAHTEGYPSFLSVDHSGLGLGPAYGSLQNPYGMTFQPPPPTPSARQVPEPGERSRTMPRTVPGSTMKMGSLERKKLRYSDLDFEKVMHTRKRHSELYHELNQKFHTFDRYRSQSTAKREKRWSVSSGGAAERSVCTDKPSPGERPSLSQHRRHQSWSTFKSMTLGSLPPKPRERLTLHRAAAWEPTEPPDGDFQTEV
Method: Changes in intracellular calcium (Ca^2+) concentrations caused by CCK-8S(SEQ ID NO: 14), CCK-8NS and CCK-4 were determined using the […] expression cell lines prepared in Example 2. The cell lines prepared in Example 2 are eight lines in which the protein encoded by ph01207 expresses as a FLAG-tag fusion protein and four lines in which the protein encoded by ph01207 expresses as a HA-tag fusion protein. Among these, in this example HA-ph01207#10-6 cell line was used as a line obtained by cellular cloning of one cell line that stably expresses the protein encoded by ph01207 as a HA-tag fusion protein. Although CCK-8NS is a CCK octapeptide consisting of the same amino acid sequence as CCK-8S (SEQ ID NO: 14), the seventh tyrosine residue from the C-terminal thereof is not sulfated. CCK-4 is a tetrapeptide consisting of the amino acid residues from the C-terminus to the fourth amino acid residue of CCK-8S (SEQ ID NO: 14).
A specific method for measuring a change in intracellular Ca^2+ concentration in the HA-ph01207#10-6 cell line produced by CCK-8S (SEQ ID NO: 14) and the results thereof are described below. HA-ph01207#10-6 cell line was seeded in 96-well plates (plates with a black wall surface and transparent bottom) at a cell count of 2×10^4/100 μL medium/well and cultured at 37° C. in the presence of 5% CO2. DMEM/F12 (Gibco) containing 10% fetal calf serum (Moregate BioTech) was used as medium. The next day, 50 μL of medium was extracted from each well, and 50 μL of loading buffer was added each well and allowed to react at room temperature for 1.5 h so as to incorporate fluorescent dye contained in the loading buffer into cells. The loading buffer was prepared by dissolving component A of the FLIPR Calcium 3 Assay Kit (Molecular Devices Corp.) with a solution in which 0.1 mL of 500 mM probenecid (Sigma) was added to 9.9 mL of component B. After the reaction, a change in the fluorescence intensity upon addition of CCK-BS (Peptide Institute, Osaka, Japan) was measured along with time for each well using FLEXstation (Molecular Devices Corp.). Measurement was also performed in a similar manner for CCK-8NS (Peptide Institute, Osaka, Japan) and CCK-4 (Peptide Institute). For CCK-8S (SEQ ID NO: 14), 0.52 mg thereof was dissolved with 4.5 mL of 1% NaHCO3 (Wako) to prepare a 0.1 mM concentration solution. For CCK-8NS, after dissolving 0.53 mg thereof with 0.50 mL of dimethylsulfoxide (DMSO, Sigma), 4.50 mL of redistilled water was added thereto to prepare a 0.1 mM concentration solution. For CCK-4, after dissolving 0.54 mg thereof with 0.46 mL of DMSO, 4.09 mL of redistilled water was added thereto to prepare a 0.2 mM concentration solution. […]

CHO-K1 cell line = experiment: Change in intracellular Ca2+ concentration in non-transfected CHO-K1 host cell line (negative control cells); type: cell-based, Chinese hamster; details: for increase in intracellular Ca2+ concentration: CHO-K1 cell line not transfected, peptide final concentration 1 nM (Example 5)
Method: A specific method for measuring a change in intracellular Ca^2+ concentration in the HA-ph01207#10-6 cell line produced by CCK-8S (SEQ ID NO: 14) and the results thereof are described below. HA-ph01207#10-6 cell line was seeded in 96-well plates (plates with a black wall surface and transparent bottom) at a cell count of 2×10^4/100 μL medium/well and cultured at 37° C. in the presence of 5% CO2. DMEM/F12 (Gibco) containing 10% fetal calf serum (Moregate BioTech) was used as medium. The next day, 50 μL of medium was extracted from each well, and 50 μL of loading buffer was added each well and allowed to react at room temperature for 1.5 h so as to incorporate fluorescent dye contained in the loading buffer into cells. The loading buffer was prepared by dissolving component A of the FLIPR Calcium 3 Assay Kit (Molecular Devices Corp.) with a solution in which 0.1 mL of 500 mM probenecid (Sigma) was added to 9.9 mL of component B. After the reaction, a change in the fluorescence intensity upon addition of CCK-BS (Peptide Institute, Osaka, Japan) was measured along with time for each well using FLEXstation (Molecular Devices Corp.). Measurement was also performed in a similar manner for CCK-8NS (Peptide Institute, Osaka, Japan) and CCK-4 (Peptide Institute). For CCK-8S (SEQ ID NO: 14), 0.52 mg thereof was dissolved with 4.5 mL of 1% NaHCO3 (Wako) to prepare a 0.1 mM concentration solution. For CCK-8NS, after dissolving 0.53 mg thereof with 0.50 mL of dimethylsulfoxide (DMSO, Sigma), 4.50 mL of redistilled water was added thereto to prepare a 0.1 mM concentration solution. For CCK-4, after dissolving 0.54 mg thereof with 0.46 mL of DMSO, 4.09 mL of redistilled water was added thereto to prepare a 0.2 mM concentration solution. CCK-8S (SEQ ID NO: 14), CCK-8NS and CCK-4 were each diluted with phosphate buffered saline (PBS) to make a 5 nM solution, and measurement was performed after adding 25 μL (final concentration 1 nM) of each. As a positive control that induces an increase in intracellular Ca^2+ concentration, A23187 (Calbiochem, Calif.) was used at a final concentration of 10 μM. As a negative control, CHO-K1 cell line that was used as a host in production of the HA-ph01207#10-6 cell line was used. Since the ph01207 expression vector was not transfected into the CHO-K1 cell line, the ph01207 gene product was not expressed therein.
(§1) Using stably expressing cell line of a splicing variant of ph01207 gene, a change in intracellular calcium concentration (Ca^2+) caused by CCK-8S was measured using the same method described in Example 5. As the stably expressing cell line of the splicing variant of ph01207 gene, the stably expressing cell line constructed in Example 7 was used. Further, using stable expressing cell line of hk01941 gene, the same investigation was conducted. As the stably expressing cell line of hk01941 gene, the stably expressing cell line constructed in Example 7 was used. As a control, a host cell which was not transfected with 7tmHR expression vector or hk01941 expression vector was used.
(§2) The cell line was seeded in 96-well plates (plates with a black wall surface and transparent bottom) at 3×10^4 cells/100 μL medium/well and cultured overnight at 37° C. in the presence of 5% CO2. The next day, 50 μL of the medium was extracted from each well, and 50 μL of loading buffer was added to each well to allow for a reaction at room temperature for 1 h so as to incorporate fluorescent dye contained in the loading buffer into cells. The loading buffer was prepared by the same method as described in Example 5. After the reaction, a change in the fluorescence intensity upon addition of CCK-8S was measured along with time for each well using FLEXstation (Molecular Devices Corp.). CCK-8S was used at a final concentration of 10 μM-1 μM. Further, A23187 was used at a final concentration of 20 μM as a positive control of the assay. […]

[2] = CCK-8S administered to diabetes patients (Bo, A. et al., 2000); cited from earlier work
variant 3 gene product = experiment: Change in intracellular Ca2+ concentration in variant 3 stably expressing cell line; type: cell-based, human; details: A23187 20 μM
Method: The function of variant 3 gene was analyzed using stably expressing cell line of variant 3 gene by investigating a change in intracellular calcium concentration (Ca^2+) caused by CCK-8S. The change in intracellular calcium concentration (Ca^2+) was measured using the same method described in Example 5. The stably expressing cell line of variant 3 gene was prepared using the variant 3 gene expression vector constructed in Example 7 by the method similar to the method described in Example 7.
The cell line was seeded in 96-well plates (plates with a black wall surface and transparent bottom) at 3×10^4 cells/100 μL medium/well and cultured overnight at 37° C. in the presence of 5% CO2. The next day, 50 μL of the medium was exited from each well, and 50 μL of loading buffer was added to each well to allow for a reaction at room temperature for 1 h so as to incorporate fluorescent dye contained in the loading buffer into cells. The loading buffer was prepared by the same method as described in Example 5. After the reaction, a change in the fluorescence intensity upon addition of CCK-8S was measured along with time for each well for 40 sec using FLEXstation (Molecular Devices Corp.). CCK-8S was used at a final concentration of 10 pM-1 μM. Further, A23187 was used at a final concentration of 20 μM as a positive control of the assay.

hk01941 gene product = experiment: Change in intracellular Ca2+ concentration in hk01941 stably expressing cell line; type: cell-based, human; details: A23187 20 μM
Method: as §1
as §2, with “Corp.).” for “Corp.). CCK-8S was used at a final concentration of 10 μM-1 μM. Further, A23187 was used at a final concentration of 20 μM as a positive control of the assay.”

7tmHR gene product = biological target: T2, 7tmHR gene product (Homo sapiens, UniProt O60241); experiment: Change in intracellular Ca2+ concentration in 7tmHR stably expressing cell line; type: cell-based; details: A23187 20 μM
T2 construct: three kinds of full length cDNA clones were obtained; expressed in transfected cells; host or cells: CHO-K1 (7tmHR/pcDNA3.1)
T2 sequence (O60241 13-1585): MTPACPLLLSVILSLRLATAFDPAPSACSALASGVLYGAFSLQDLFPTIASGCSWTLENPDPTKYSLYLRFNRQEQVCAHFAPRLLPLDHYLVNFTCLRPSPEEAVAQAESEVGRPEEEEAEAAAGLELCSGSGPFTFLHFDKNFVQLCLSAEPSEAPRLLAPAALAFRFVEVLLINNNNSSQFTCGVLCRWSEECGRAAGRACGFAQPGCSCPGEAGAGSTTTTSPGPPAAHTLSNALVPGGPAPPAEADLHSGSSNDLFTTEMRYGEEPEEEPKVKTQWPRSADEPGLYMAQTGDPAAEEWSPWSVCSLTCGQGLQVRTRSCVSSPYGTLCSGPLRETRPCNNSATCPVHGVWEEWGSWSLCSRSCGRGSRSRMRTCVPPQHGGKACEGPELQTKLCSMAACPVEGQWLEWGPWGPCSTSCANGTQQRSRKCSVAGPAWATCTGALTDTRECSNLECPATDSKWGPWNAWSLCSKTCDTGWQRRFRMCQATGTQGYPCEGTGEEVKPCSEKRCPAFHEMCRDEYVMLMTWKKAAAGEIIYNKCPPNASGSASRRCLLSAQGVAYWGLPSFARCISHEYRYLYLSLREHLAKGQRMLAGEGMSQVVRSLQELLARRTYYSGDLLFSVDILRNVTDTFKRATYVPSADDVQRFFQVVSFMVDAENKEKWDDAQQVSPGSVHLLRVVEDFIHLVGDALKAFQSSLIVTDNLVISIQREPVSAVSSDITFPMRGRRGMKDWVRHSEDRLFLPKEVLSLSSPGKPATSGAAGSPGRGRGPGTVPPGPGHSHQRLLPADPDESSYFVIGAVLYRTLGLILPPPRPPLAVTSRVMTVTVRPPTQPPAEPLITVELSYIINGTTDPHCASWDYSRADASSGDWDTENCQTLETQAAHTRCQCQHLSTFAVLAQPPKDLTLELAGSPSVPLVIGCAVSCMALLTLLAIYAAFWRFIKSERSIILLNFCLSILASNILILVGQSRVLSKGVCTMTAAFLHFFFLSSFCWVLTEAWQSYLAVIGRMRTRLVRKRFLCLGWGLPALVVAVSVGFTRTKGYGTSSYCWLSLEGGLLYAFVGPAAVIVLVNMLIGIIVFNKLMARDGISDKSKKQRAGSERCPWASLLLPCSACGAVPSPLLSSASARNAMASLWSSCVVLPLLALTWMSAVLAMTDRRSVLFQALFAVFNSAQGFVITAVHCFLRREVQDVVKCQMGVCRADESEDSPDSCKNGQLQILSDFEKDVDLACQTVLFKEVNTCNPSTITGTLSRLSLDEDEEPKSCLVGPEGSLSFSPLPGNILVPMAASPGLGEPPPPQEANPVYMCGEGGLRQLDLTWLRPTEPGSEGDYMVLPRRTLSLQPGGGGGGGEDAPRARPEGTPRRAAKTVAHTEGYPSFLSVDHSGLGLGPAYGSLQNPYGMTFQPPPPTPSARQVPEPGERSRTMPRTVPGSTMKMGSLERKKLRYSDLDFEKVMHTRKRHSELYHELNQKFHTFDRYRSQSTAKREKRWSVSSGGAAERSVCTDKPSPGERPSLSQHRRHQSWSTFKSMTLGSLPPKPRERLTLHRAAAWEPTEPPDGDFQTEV
Method: as §1
as §2, with “Corp.).” for “Corp.). CCK-8S was used at a final concentration of 10 μM-1 μM. Further, A23187 was used at a final concentration of 20 μM as a positive control of the assay.”

level of increase in the intracellular Ca2+ concentration compared with that produced by A23187 ([1]; 1 nM CCK-8S vs 10 μM A23187): roughly equal
rise in the intracellular Ca2+ concentration [1]: rose
Molecule: cholecystokinin octapeptide sulfated form [CCK-8S]
increase in intracellular Ca2+ concentration (CHO-K1 cell line): no increase
change in intracellular calcium concentration (CHO-K1 cell line; host cell not transfected with variant 3 expression vector, CCK-8S (Example 9)): not observed
change in intracellular calcium concentration (CHO-K1 cell line; host cell transfected with neither 7tmHR nor hk01941 expression vector, CCK-8S (Example 8)): not observed
increase in insulin amounts [2]: promoted
increase in postcibal glucose amount [2]: suppressed

Molecule: CNc1ccc2oc(C[C@H]3O[C@@]4(CC[C@H]3C)O[C@H]([C@H](C)C(=O)c3ccc[nH]3)[C@H](C)C[C@H]4C)nc2c1C(=O)O [A23187]
response (intracellular Ca2+) to positive control (variant 3 gene product): observed similarly
response (intracellular Ca2+) to positive control (hk01941 gene product): observed similarly
response (intracellular Ca2+) to positive control (CHO-K1 cell line; CHO-K1 host cell, A23187 20 μM (Examples 8 and 9)): observed similarly
response (intracellular Ca2+) to positive control (7tmHR gene product): observed similarly

rise in the intracellular Ca2+ concentration [1]: not observed
Molecule: CCK-8 Nonsulfated form [CCK-8NS]
increase in intracellular Ca2+ concentration (CHO-K1 cell line): no increase

Molecule: CCK-4: tetrapeptide consisting of the amino acid residues from the C-terminus to the fourth residue of CCK-8S
rise in the intracellular Ca2+ concentration [1]: not observed
increase in intracellular Ca2+ concentration (CHO-K1 cell line): no increase
